Patent US20070003480A1, “Liposomal composition comprising haptotactic peptides” (Hapto Biotech, Inc., priority 2002, published 2007)
Entries after “also recorded” stand apart in the source; their conditions may differ.

What was measured:
[1] = test system: bovine aortic endothelial cells; test: Haptide-mediated Doxil liposome uptake by bovine aortic endothelial cells, fluorescence microscopy; type: cell-based; conditions: Doxil (doxorubicin-loaded) liposomes; FIG. 5
Procedure: (§1) Human fibroblasts or bovine aortic endothelial cells were seeded and grown in CO2 incubator for 24 hours in a 4-chamber cell culture coverslip slide (source) used for microscopy. Then, they were exposed to either free ^FITCHaptide or to a ^FITCHaptotactic Peptide-Liposomal composition. Two liposome types were examined, namely liposomes composed of hydrogenated phosphatidyl serine, PEG and cholesterol, containing the fluorescent dye Rhodamine; and clinical grade liposomes containing the anti-cancer drug doxorubicin (Doxil liposomes). Both rhodamine and doxorubicin are fluorescent compounds. Thus, the liposome penetration and distribution within cells could be tracked by fluorescence microscopy or FACS. Typically, 20 μl of fluorescent Haptotactic Peptide-Liposomal composition were mixed with 180 μl PBS and added to the cell chamber. Incubation was continued for up to 1 hour at 37 or 4° C. The incubation was stopped at different time points by two subsequent washes with PBS, followed by fixation with 500 μl of 4% formaldehyde for 1 hr. The samples were then washed again with PBS. Coverslips with the fixed cells were covered by PBS-glycerol 80%, DABCO 2%, and an additional coverslip for microscopic examination.

BAEC = test: Cell adhesion (haptotaxis) assay, Sepharose bead-bound ligand; type: cell-based, bovine; conditions: ligand bound to Sepharose beads
Procedure: (§2) The attachment of Sepharose beads (SB)-ligand to cells in nearly confluent cultures grown on plastic was measured as previously described (Gorodetsky R. et al. 1998. J Lab Clin Med 131, 269-280; Gorodetsky R. et al. 1999. J Invest Dermatol 112:866-872). Essentially, about 20-150 μl of suspended (50% v/v) SB-Haptide or SB-fibrinogen were added to near confluent cell cultures in 6-24 well plates and dispersed by gentle shaking for 1 min. The plates were then incubated for up to 4 days. After one day the number of SB tethered to cell layer was counted with an inverted phase or Numarsky microscopy. Typically, ˜300 SB (but not less then 200) were counted in each well, and the ratio of the number of SB attached to the cells in each well, was calculated relative to the total number of SB. At least 3 wells were measured for each variant and each experiment was repeated at least 3 times.

Human fibroblasts = test: Haptide-mediated liposome uptake by human fibroblasts, fluorescence microscopy; type: cell-based; conditions: for liposome uptake into the cytoplasm of fibroblasts: rhodamine-loaded liposomes, FIG. 4
Procedure: as §1

HF = test: Cell adhesion (haptotaxis) assay, Sepharose bead-bound ligand; type: cell-based, human; conditions: ligand bound to Sepharose beads
Procedure: as §2

human fibroblasts (HF) = test: Uptake of FITC-labelled peptides by cells, confocal laser fluorescence microscopy; type: cell-based; conditions: visual score (0-4) from fluorescence micrographs; FITC-labelled ligand 100 μg/ml (40 μM), 1 h, 37° C.
Procedure: Fluorescent microscopy was carried out with Olympus or Nikon fluorescence microscopes. Confocal laser microscopy was done with a computerized Zeiss Confocal Axiomate microscope (LSM410) with multiple excitation wavelengths. Peptides were tagged with fluorescein isothiocyanate (FITC) for visualization. For examination of ^FITCpeptides uptake by human fibroblasts (HF) the cells were grown on glass coverslips to near confluence and then incubated with 100 μg/ml (40 μM) ^FITCpeptides at 37° C. After 1 h, the cells were washed and fixed in 0.5% buffered glutaraldehyde. Coverslips with the cells were placed on a microscope slide with PBS-glycerol 80% with 2% DABCO and examined. The representative fields of cells were visualized by Numarski optics and confocal scans of cell fluorescence intensity in 1 μm slices were recorded at the FITC wavelength (excitation 488 nm, emission 515 nm) and later reconstructed. Uptake of ^FITCligand by HF was scored visually (0-4). The fluorescent haptotactic peptides were clearly seen taken up by the HF cells, and the nuclei remained relatively free of ^FITCHaptide (FIGS. 1A & B). […] By contrast, the uptake of the control ^FITCCα peptide by the cells was negligible.

[2] = Particle size by dynamic light scattering; type: physicochemical; conditions: Haptide solution 1 mg/mL, 0.45 μm filtered, 25° C., mean of three measurements
Procedure: It has been previously observed by gel filtration that haptides tend to form aggregates (Gorodetsky R, Vexler A, Shamir M, An J, Levdansky L, Shimeliovich I, Marx G. Exp Cell Res. 287:116-129 (2003). A solution of the Haptide preCγ (1 mg/mL) was passed through a 0.45 μm filter and then measured by dynamic light scattering at 25° C. The average particle size (a mean value of three measurements) was ˜145 nm (FIG. 3), showing that such particle is an aggregate of few hundreds of preCγ monomers.
Similarly, Doxil liposomes were measured and observed to have a mean diameter of 80 nm. However, when the preCγ-liposomal composition was formed, the preCγ Haptides aggregates disappeared in correlation with the liposome/Haptide weight ratio (FIG. 3). […] At a doxil/haptide weight ratio of >10^−2, the almost totally all the Haptides aggregates were solubilized within the liposomes as indicated by the disappearance of larger Haptide particles, forming the haptotactic-peptide liposomal composition.

Substance | liposome uptake into endothelial cells [1] | % Haptotaxis (BAEC, 1 day) (BAEC) [%] | concentration-dependent liposome uptake by human fibroblasts (Human fibroblasts; Doxorubicin-loaded liposomes, varying Haptide concentration, FIG. 6) | liposome uptake into the cytoplasm of fibroblasts (Human fibroblasts) | % Haptotaxis (HF, 1 day) (HF) [%] | Cell Uptake (HF) (human fibroblasts (HF)) | average particle size [2] [nm]
KGSWYSMRKMSMKIRPFFPQQ (Equivalent to the c-terminus of fibrinogen beta-chain) [Cβ] | facilitated liposome uptake | 100 | increased liposome uptake; also recorded: directly correlated to the Haptide (Cβ) concentration | facilitated liposome uptake | 100 | +4 | –
KTRWYSMKKTTMKIIPFNRL (Equivalent to the c-terminus of fibrinogen pre-gama chain) [preCγ] | facilitated liposome uptake | – | – | facilitated liposome uptake | – | – | ~145
RGADYSLRAVRMKIRPLTVTQ (Equivalent to the c-terminus of fibrinogen alphaE chain) [CαE] | efficient in enhancing doxorubicin-liposome (Doxil) uptake | 75 | – | Low induction | 60 | +3 | –
fibrinogen | – | 100 | – | – | 100 | +2 | –
